Experimental data reported in patent US20250092029A1 (THE WISTAR INSTITUTE OF ANATOMY AND BIOLOGY, priority 2022, published 2025).
Read-outs that look alike come from different tables or passages of the source.

Columns and labels:
Assay type in all cases: cell-based
[1] = test system: SARS-CoV-2 (USA-WA1/2020 variant); assay: Virus CPE assay in Vero-E6 cells, USA-WA1/2020; settings: for EC50: USA-WA1/2020, Vero-E6, 4 days, read-out: EC50, inhibition of CPE; for inhibition at 3 µM: single treatment at 3 μM
[2] = test system: SARS-CoV-2 B.1.1.7/Alpha variant; assay: Virus CPE assay in Vero-E6 cells, B.1.1.7; settings: Severe acute respiratory syndrome coronavirus 2, Vero C1008, 96 h; B.1.1.7, Vero-E6, 4 days; read-out: EC50, inhibition of CPE
[3] = test system: SARS-CoV-2 B.1.351/Beta variant; assay: Virus CPE assay in Vero-E6 cells, B.1.351; settings: Severe acute respiratory syndrome coronavirus 2, Vero C1008, 96 h; B.1.351, Vero-E6, 4 days; read-out: EC50, inhibition of CPE
[4] = Severe acute respiratory syndrome coronavirus 2, Vero C1008, 96 h
[5] = Severe acute respiratory syndrome coronavirus 2, Vero C1008, 5 experiments of 8-fold replicates, read-out: percent of wells with CPE inhibited

| Structure (SMILES) | EC50 [1, 4] [µM] | inhibition at 3 µM [1, 5] [%] | EC50 [2] [µM] | EC50 [3] [µM] | inhibition at 1 µM ([1]; Severe acute respiratory syndrome coronavirus 2, Vero C1008, single treatment at 1 μM, 5 experiments of 8-fold replicates, read-out: percent of wells with CPE inhibited) [%] | EC50 [1] [µM] |
| --- | --- | --- | --- | --- | --- | --- |
| O=C(CN1C(=O)[C@@H](NC(=O)OCc2ccccc2)COc2ccccc21)N[C@@H](C[C@@H]1CCNC1=O)C(=O)COC(=O)c1c(Cl)cccc1Cl [AP-8-013, (S)-3-(2-((S)-3-(benzyloxycarbonylamino)-4-oxo-3,4-dihydrobenzo[b][1,4]oxazepin-5(2H)-yl)acetamido)-2-oxo-4-((S)-2-oxopyrrolidin-3-yl)butyl 2,6-dichlorobenzoate] | 12.8 ± 1.6 | 7.5 | 10.6 ± 1 | 5.5 ± 0.4 |  |  |
| COc1cccc2[nH]c(C(=O)N[C@@H](CC(C)C)C(=O)N[C@@H](C[C@@H]3CCNC3=O)C(=O)COC(=O)c3c(Cl)cccc3Cl)cc12 [AP-8-001, reference compound] | 1.2 ± 0.3 |  |  |  |  |  |
| O=C(CN1C(=O)[C@@H](NC(=O)c2ccccc2)COc2ccccc21)N[C@@H](C[C@@H]1CCNC1=O)C(=O)COC(=O)c1c(Cl)cccc1Cl [AP-8-011, (S)-3-(2-((S)-3-benzamido-4-oxo-3,4-dihydrobenzo[b][1,4]oxazepin-5(2H)-yl)acetamido)-2-oxo-4-((S)-2-oxopyrrolidin-3-yl)butyl 2,6-dichlorobenzoate] | 14.1 ± 3.6 |  |  |  |  |  |
| CCC(CC)COC(=O)[C@H](C)N[P@](=O)(OC[C@H]1O[C@@](C#N)(c2ccc3c(N)ncnn23)[C@H](O)[C@@H]1O)Oc1ccccc1 [Remdesivir] | 3.1 ± 0.7 | 15 ± 9.2 |  |  | 2.5 ± 2.5 |  |
| CC(C)C[C@H](NC(=O)OCc1ccccc1)C(=O)N[C@@H](C[C@@H]1CCNC1=O)C(O)S(=O)(=O)O (stereo partly drawn) [GC-376] | 3.4 ± 0.9 |  | 1.3 ± 0.6 |  |  | 3.3 ± 1.2 |
